The numbers were not newly measured in US6417349B1, “Water-soluble extract of asiaticoside and madecassoside from Centella asiatica and isolating method thereof” (priority 1997, dated 2002), which cites them from elsewhere.

Molecules are shown by their SMILES.

For this series the following is noted: prior-art components.
In the case of `C[C@H]1[C@H](C)CC[C@]2(C(=O)O)CC[C@]3(C)C(=CC[C@@H]4[C@@]5(C)C[C@@H](O)[C@H](O)[C@@](C)(CO)[C@@H]5CC[C@]43C)[C@H]12` [asiatic acid], the solubility in water result is “water-insoluble”.
With `CC1CCC2(C(=O)O)CCC3(C)C(=CCC4C5(C)CC(O)C(O)C(C)(C)C5C(O)CC43C)C2C1C` (stereo not drawn) [madasiatic acid], the solubility in water result is given as “water-insoluble”.
`C[C@H]1[C@H](C)CC[C@]2(C(=O)O)CC[C@]3(C)C(=CC[C@@H]4[C@@]5(C)C[C@@H](O)[C@H](O)[C@@](C)(CO)[C@@H]5[C@H](O)C[C@]43C)[C@H]12` [madecassic acid]: the solubility in water entry is “water-insoluble”.
